One may read the IC50 as the concentration needed to halve the response being measured.

SMILES strings stand for the structures.

The assay concerns the target T1, Cytochrome P450 1A2 (Homo sapiens, UniProt P05177).
T1 sequence (P05177 whole entry): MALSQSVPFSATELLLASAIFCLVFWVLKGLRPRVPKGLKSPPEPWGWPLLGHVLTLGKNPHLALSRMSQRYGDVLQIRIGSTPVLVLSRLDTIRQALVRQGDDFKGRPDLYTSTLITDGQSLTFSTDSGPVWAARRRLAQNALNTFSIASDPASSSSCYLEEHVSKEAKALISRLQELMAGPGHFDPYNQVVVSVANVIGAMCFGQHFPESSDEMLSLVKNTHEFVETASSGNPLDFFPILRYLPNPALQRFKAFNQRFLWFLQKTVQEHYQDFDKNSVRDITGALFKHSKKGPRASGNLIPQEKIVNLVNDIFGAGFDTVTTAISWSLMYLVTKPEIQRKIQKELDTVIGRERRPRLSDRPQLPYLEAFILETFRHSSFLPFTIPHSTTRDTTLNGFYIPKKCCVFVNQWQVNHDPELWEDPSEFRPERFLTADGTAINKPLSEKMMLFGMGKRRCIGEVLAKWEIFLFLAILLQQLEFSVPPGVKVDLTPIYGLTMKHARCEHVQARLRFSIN
Put plainly: Inhibition of CYP1A2 in human liver microsomes using Phenacetin as substrate measured after 20 mins by LC-MS/MS analysis. Format: ADME. Background: Liver microsomes are a subcellular fraction often used to study metabolism.

Consider `O=c1cc(-c2ccccc2)oc2ccc3ccccc3c12` [BETA-NAPHTHOFLAVONE], for which the IC50 amounted to 83.5 nM.

The record behind these values is ChEMBL document CHEMBL4813945, “Discovery and development of novel pyrimidine and pyrazolo/thieno-fused pyrimidine derivatives as potent and orally active inducible nitric oxide synthase dimerization inhibitor with efficacy for arthritis” (Eur J Med Chem, 2021).
